Test results from patent US12185743B2, “Processes for transglucosylation of steviol glycosides” (Beijing Gingko-Group Biological Technology Co., Ltd., priority 2019, dated 2025).

Experiment: Dissolution of RebD and RebM
Format: physicochemical
Settings: without maltooligosaccharides

dissolution	SMILES
do not dissolve completely	C=C1C[C@@]23CC[C@H]4[C@@](C)(CCC[C@@]4(C)C(=O)O[C@@H]4O[C@H](CO)[C@@H](O)[C@H](O)[C@H]4O[C@@H]4O[C@H](CO)[C@@H](O)[C@H](O)[C@H]4O)[C@@H]2CC[C@]1(O[C@@H]1O[C@H](CO)[C@@H](O)[C@H](O[C@@H]2O[C@H](CO)[C@@H](O)[C@H](O)[C@H]2O)[C@H]1O[C@@H]1O[C@H](CO)[C@@H](O)[C@H](O)[C@H]1O)C3 [RebD, Rebaudioside D]
do not dissolve completely	C=C1C[C@@]23CC[C@H]4[C@@](C)(CCC[C@@]4(C)C(=O)O[C@@H]4O[C@H](CO)[C@@H](O)[C@H](O[C@@H]5O[C@H](CO)[C@@H](O)[C@H](O)[C@H]5O)[C@H]4O[C@@H]4O[C@H](CO)[C@@H](O)[C@H](O)[C@H]4O)[C@@H]2CC[C@]1(O[C@@H]1O[C@H](CO)[C@@H](O)[C@H](O[C@@H]2O[C@H](CO)[C@@H](O)[C@H](O)[C@H]2O)[C@H]1O[C@@H]1O[C@H](CO)[C@@H](O)[C@H](O)[C@H]1O)C3 [RebM, Rebaudioside M]
